# Assay results from the supplement of paper PMC11208160.
# Test: recombinant UMI read abundance after kanamycin selection (control-corrected) (log10(CPM+1)); higher = more efficient recombination; extreme values may be limits of the assay; sequences stand for … in AGTGCAGAGAAAATCGGCCAGTTTTCTCTGCCTGCAGTCCGCATGCCGTGGGACCCCTTGGGTTCTAACCTGTTGCCTAGATTTATGCAGCGGACTGCCTTTCTCCCAAAGTGATAAACCGG…AGGTTGGTTTCACT; site = the 11-nt donor
# Procedure, shortened: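 Sequenced counts of recombinant UMIs were turned into CPM, averaged across replicates and scaled with control-derived factors. The reported figure is log10(CPM+1). Those UMIs, each 12 nt long, tagged donor and donor-binding-loop pairs on a plasmid with a promoterless kanamycin gene, screened as a pool in Escherichia coli with IPTG (0.07 mM) plus kanamycin or without selection.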
# 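Further: IS621 bridge recombinase in Escherichia coli cells against a fixed T5 target plasmid.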
row,Sequence,recombinant UMI read abundance (log10)
1,TAGCCGTCATGGACCGGTTTTCCCGGTAATCCGTATTTGGT (site TAGCCGTCTAC),0.776
2,TAGCCGTCATGGACCGGTTTTCCCGGTAATCCGTATTTGGT (site TAGCCTTCTAC),0.013
3,TAGCCTTCATGGACCGGTTTTCCCGGTAATCCGTATTTGGA (site TAGCCTTCTAC),0.0179
4,TAGCCTTCATGGACCGGTTTTCCCGGTAATCCGTATTTGGA (site TAGCCTTCTCC),0.02
5,TAGCCTTCATGGACCGGTTTTCCCGGTAATCCGTATTTGGA (site TAGCCTTCTGC),0
6,TAGCCTTCATGGACCGGTTTTCCCGGTAATCCGTATTTGGA (site TAGCCTTCTTC),0.00303
7,TAGCCTTCATGGACCGGTTTTCCCGGTAATCCGTATTTGGG (site TAGCCTTCTAC),0
8,TAGCCTTCATGGACCGGTTTTCCCGGTAATCCGTATTTGGG (site TAGCCTTCTCC),0.0175
9,TAGCCTTCATGGACCGGTTTTCCCGGTAATCCGTATTTGGG (site TAGCCTTCTGC),0
10,TAGCCTTCATGGACCGGTTTTCCCGGTAATCCGTATTTGGG (site TAGCCTTCTTC),0.0097
11,TAGCGAACATGGACCGGTTTTCCCGGTAATCCGTATTTGGA (site TAGCGAACTTC),1.05
12,TAGCGAGCATGGACCGGTTTTCCCGGTAATCCGTATTTGAA (site TAGCAAGCTTT),1.3
13,TAGCGAGCATGGACCGGTTTTCCCGGTAATCCGTATTTGAA (site TAGCCAGCTTT),0.0145
14,TAGCGAGCATGGACCGGTTTTCCCGGTAATCCGTATTTGAA (site TAGCGAGCTTT),1.41
15,TAGCGAGCATGGACCGGTTTTCCCGGTAATCCGTATTTGAA (site TAGCTAGCTTT),0.00707
16,TAGCGAGCATGGACCGGTTTTCCCGGTAATCCGTATTTGTA (site TAGCGAGCTTA),1.82
17,TAGCGGCCATGGACCGGTTTTCCCGGTAATCCGTATTTGAA (site TAGCGGCCTTT),0.205
18,TAGCGTACATGGACCGGTTTTCCCGGTAATCCGTATTTGTA (site TAGCGTACTTA),1.2
19,TAGCTAACATGGACCGGTTTTCCCGGTAATCCGTATTTGAA (site TAGCTAACTTT),1.09
20,TAGCTAACATGGACCGGTTTTCCCGGTAATCCGTATTTGAA (site TAGCTACCTTT),0.00585
21,TAGCTAACATGGACCGGTTTTCCCGGTAATCCGTATTTGAA (site TAGCTAGCTTT),0.00737
22,TAGCTAACATGGACCGGTTTTCCCGGTAATCCGTATTTGAA (site TAGCTATCTTT),0.429
23,TAGCTACCATGGACCGGTTTTCCCGGTAATCCGTATTTGAA (site TAGCTAACTTT),0.00682
24,TAGCTACCATGGACCGGTTTTCCCGGTAATCCGTATTTGAA (site TAGCTACCTTT),0.00616
25,TAGCTACCATGGACCGGTTTTCCCGGTAATCCGTATTTGAA (site TAGCTAGCTTT),0.00385

row,Sequence,recombinant UMI read abundance (log10)
1,TAGCTACCATGGACCGGTTTTCCCGGTAATCCGTATTTGAA (site TAGCTATCTTT),0.784
2,TAGCTATCATGGACCGGTTTTCCCGGTAATCCGTATTTGAA (site TAGCTAACTTT),0.00325
3,TAGCTATCATGGACCGGTTTTCCCGGTAATCCGTATTTGAA (site TAGCTACCTTT),0.0124
4,TAGCTATCATGGACCGGTTTTCCCGGTAATCCGTATTTGAA (site TAGCTAGCTTT),0.00959
5,TAGCTATCATGGACCGGTTTTCCCGGTAATCCGTATTTGAA (site TAGCTATCTTT),2.02
6,TAGCTCACATGGACCGGTTTTCCCGGTAATCCGTATTTGAT (site AAGCTCACTAT),0.00391
7,TAGCTCACATGGACCGGTTTTCCCGGTAATCCGTATTTGAT (site CAGCTCACTAT),0.61
8,TAGCTCACATGGACCGGTTTTCCCGGTAATCCGTATTTGAT (site GAGCTCACTAT),0.0104
9,TAGCTCACATGGACCGGTTTTCCCGGTAATCCGTATTTGAT (site TAGCTCACTAT),1.47
10,TAGGAATCATGGACCGGTTTTCCCGGTAATCCGTATTTGGG (site TAGGAATCTCA),0.407
11,TAGGAATCATGGACCGGTTTTCCCGGTAATCCGTATTTGGG (site TAGGAATCTCC),1.79
12,TAGGAATCATGGACCGGTTTTCCCGGTAATCCGTATTTGGG (site TAGGAATCTCG),0
13,TAGGAATCATGGACCGGTTTTCCCGGTAATCCGTATTTGGG (site TAGGAATCTCT),0.56
14,TAGGATACATGGACCGGTTTTCCCGGTAATCCGTATTTGCA (site TAGAATACTTG),1.71
15,TAGGATACATGGACCGGTTTTCCCGGTAATCCGTATTTGCA (site TAGCATACTTG),0.852
16,TAGGATACATGGACCGGTTTTCCCGGTAATCCGTATTTGCA (site TAGGATACTTG),3.06
17,TAGGATACATGGACCGGTTTTCCCGGTAATCCGTATTTGCA (site TAGTATACTTG),1.44
18,TAGGATTCATGGACCGGTTTTCCCGGTAATCCGTATTTGCG (site TAGGAATCTCG),1.73
19,TAGGATTCATGGACCGGTTTTCCCGGTAATCCGTATTTGCG (site TAGGACTCTCG),1.68
20,TAGGATTCATGGACCGGTTTTCCCGGTAATCCGTATTTGCG (site TAGGAGTCTCG),0.435
21,TAGGATTCATGGACCGGTTTTCCCGGTAATCCGTATTTGCG (site TAGGATTCTCG),2.94
22,TAGGCAACATGGACCGGTTTTCCCGGTAATCCGTATTTGCA (site TAGGCAACTTG),0.0204
23,TAGGCATCATGGACCGGTTTTCCCGGTAATCCGTATTTGCG (site TAGGAATCTCG),0
24,TAGGCATCATGGACCGGTTTTCCCGGTAATCCGTATTTGCG (site TAGGCATCTCG),1.31
25,TAGGCATCATGGACCGGTTTTCCCGGTAATCCGTATTTGCG (site TAGGGATCTCG),0.00568

row,Sequence,recombinant UMI read abundance (log10)
1,TAGGCATCATGGACCGGTTTTCCCGGTAATCCGTATTTGCG (site TAGGTATCTCG),0.449
2,TAGGGGACATGGACCGGTTTTCCCGGTAATCCGTATTTGAA (site TAGGGGACTTT),1.24
3,TAGGTAGCATGGACCGGTTTTCCCGGTAATCCGTATTTGAA (site TAGATAGCTTT),0.894
4,TAGGTAGCATGGACCGGTTTTCCCGGTAATCCGTATTTGAA (site TAGCTAGCTTT),0.00863
5,TAGGTAGCATGGACCGGTTTTCCCGGTAATCCGTATTTGAA (site TAGGTAGCTTT),1.67
6,TAGGTAGCATGGACCGGTTTTCCCGGTAATCCGTATTTGAA (site TAGTTAGCTTT),0.0108
7,TAGGTATCATGGACCGGTTTTCCCGGTAATCCGTATTTGCG (site TAGGAATCTCG),1.02
8,TAGGTATCATGGACCGGTTTTCCCGGTAATCCGTATTTGCG (site TAGGCATCTCG),1.3
9,TAGGTATCATGGACCGGTTTTCCCGGTAATCCGTATTTGCG (site TAGGGATCTCG),1.7
10,TAGGTATCATGGACCGGTTTTCCCGGTAATCCGTATTTGCG (site TAGGTATCTCG),2.92
11,TAGGTTGCATGGACCGGTTTTCCCGGTAATCCGTATTTGGC (site TAGGTTGCTGC),2.62
12,TAGTACTCATGGACCGGTTTTCCCGGTAATCCGTATTTGCT (site TAGTACTCTAG),2.94
13,TAGTAGTCATGGACCGGTTTTCCCGGTAATCCGTATTTGGG (site TAGTAGTCTCC),0.369
14,TAGTCGACATGGACCGGTTTTCCCGGTAATCCGTATTTGGG (site AAGTCGACTCC),0.0151
15,TAGTCGACATGGACCGGTTTTCCCGGTAATCCGTATTTGGG (site CAGTCGACTCC),0.0191
16,TAGTCGACATGGACCGGTTTTCCCGGTAATCCGTATTTGGG (site GAGTCGACTCC),0.0292
17,TAGTCGACATGGACCGGTTTTCCCGGTAATCCGTATTTGGG (site TAGTCGACTCC),0.0301
18,TAGTCGGCATGGACCGGTTTTCCCGGTAATCCGTATTTGAT (site TAGTCGGCTAT),0.387
19,TAGTTAGCATGGACCGGTTTTCCCGGTAATCCGTATTTGAA (site TAGATAGCTTT),0.0157
20,TAGTTAGCATGGACCGGTTTTCCCGGTAATCCGTATTTGAA (site TAGCTAGCTTT),0.407
21,TAGTTAGCATGGACCGGTTTTCCCGGTAATCCGTATTTGAA (site TAGGTAGCTTT),0.00722
22,TAGTTAGCATGGACCGGTTTTCCCGGTAATCCGTATTTGAA (site TAGTTAGCTTT),1.33
23,TATAACTCATGGACCGGTTTTCCCGGTAATCCGTATTTGGC (site TATAACTCTGC),1.35
24,TATACACCATGGACCGGTTTTCCCGGTAATCCGTATTTGAC (site TATACACCTGT),0
25,TATACACCATGGACCGGTTTTCCCGGTAATCCGTATTTGAC (site TCTACACCTGT),0.0077
